Source: PubChem BioAssay (NCI)
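Results reflect a 48-hour exposure of cells in 96-well plates to compound at five concentrations. TGI is the concentration that stops growth completely.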

The molecules below were run on LOX IMVI melanoma (assay: DTP human tumour cell line panel, 48 h).

Structure (SMILES)	TGI [µM]
COC(=O)c1c(C)cccc1C1CN=NC12Cc1ccc(C)cc1C2=O (configuration not stated)	> 100
N#Cc1c(-c2ccccc2)/c(=C\Nc2cccc(C(F)(F)F)c2)c(=O)n2c1nc1ccccc12	> 100
S=C1Nc2ccccc2SC1c1ccccc1 (configuration not stated)	> 100
COC(=O)c1ccccc1CC1Cc2ccc3c(c2C1=O)CCCC3 (configuration not stated)	> 87
CN1CCN(C2=NCCO2)CC1	> 100
c1ccc(N=c2sc3ccccc3nc2Nc2ccccc2)cc1	> 100
O=C1/C(=C/c2ccccc2)N=C2Sc3c(nc[nH]c3=O)N12	> 100
C=CC1(C)CCC2C(=CCC3C2(C)CC(O)C(O)C3(C)COC2OC(C(=O)O)C(O)C(O)C2O)C1 (configuration not stated) (tested in a mixture with another compound)	> 100
N#Cc1c(N2CCCC2)ncn(-c2ccccc2)c1=O	> 100
N#CC1(C#N)N[C@@H](c2ccsc2)[C@H]2C(=O)N(c3ccccc3)C(=O)[C@H]21	> 100
O=[N+]([O-])c1ccc2c(c1)/C(=N/N=C1c3ccccc3Cc3ccccc31)c1cc([N+](=O)[O-])cc([N+](=O)[O-])c1-2	4.6
Cc1ccc([N+](=O)[O-])cc1NC1=NCCO1	> 100
CC(C)=CCc1c2c(c3occ(-c4ccc(O)cc4)c(=O)c3c1O)CC(C(C)(C)O)O2 (configuration not stated)	30.4
CCOC(=O)C(SCCO)C(C(=O)OCC)n1cnc2c(=O)[nH]c(NC(C)=O)nc21 (configuration not stated)	> 100
COc1cc(C2c3cc4c(cc3OC(N3CCOCC3)C2C)OCO4)ccc1O (configuration not stated)	> 58.9
Cc1ccccc1C(=O)N1CCc2c([nH]c3ccccc23)C1	50.2
CC[C@@H]1CC[C@@H]2[C@H](CC[C@]3(C)[C@@H](OC(C)=O)CC[C@@H]23)[C@H]1COC(C)=O	31.5
NS(=O)(=O)c1ccc2c(c1)OCCOCCOCCOCCO2	> 100
COC(=O)c1cc(=O)nc2sc3cccc(C)c3n12	33.8

What follows are molecules tested on NCI-H23 lung (assay: DTP human tumour cell line panel, 48 h).

Structure (SMILES)	TGI [µM]
O=C1CSC(c2ccc(Cl)cc2)N1c1ccc(Oc2ccc(Cl)cc2)c(Cl)c1 (configuration not stated)	31.4
Cc1ccc(C(=O)O)cc1S(=O)(=O)Nn1cnc2ccc(S(=O)(=O)Nc3ccccc3C(=O)O)cc2c1=O	> 100
CCCCCCc1cc2cc(-c3csc(CC#N)n3)c(=O)oc2cc1O	> 100
C=C1C(=O)O[C@@H]2C(=O)[C@@H](C)CCC/C(C)=C/CC[C@@]3(C)O[C@@H]3C[C@@H]12	> 100
COc1cc(Br)cc2cc(-c3cn4ccsc4n3)c(=O)oc12	> 100
C[C@]12CCC(O)CC1=CC[C@@H]1[C@@H]2CC[C@]2(C)C(=O)[C@H](n3ccnc3)C[C@@H]12 (some centres not stated)	> 100
O=c1[nH]c(Nc2cccc(CC(F)(F)F)c2)nc2nc[nH]c12	> 100
COc1ccc(-c2cc(O)c3nc4ccccc4n3c2)cc1	> 100
O=C1CC(NC(=O)C(F)(F)F)c2c(Br)sc(N3CCNCC3)c21 (configuration not stated)	> 100
COc1cc2nc3n(c(=O)c2cc1OC)-c1ccc([N+](=O)[O-])cc1C3=O	> 100
CC(=O)OC1CC(OC2C(O)CC(OC3C(O)CC(OC4CCC5(C)C(CCC6C5CC(O)C5(C)C(C7=CC(=O)OC7)CCC65O)C4)OC3C)OC2C)OC(C)C1OC1OC(CO)C(O)C(O)C1O (configuration not stated)	0.0744
Nc1nc(SCCc2ccccc2)c2[nH]cnc2n1	> 100
Cc1ccc(-c2n[nH]c(=O)n2N2C(=O)c3ccccc3C2=O)cc1	> 100
COc1cc2c(c(OC)c1OC)C(=O)[C@@H]1[C@H]2N1C(N)=O	> 100
COC(=O)C1SC(SC)=NC12c1ccccc1Nc1ccccc12 (configuration not stated)	38.9
CCOC(=O)C1(C/C=C/CBr)Cc2ccccc2C1=O (configuration not stated)	4.47
CN1CCc2cc(N)cc3c2C1Cc1ccc(O)c(O)c1-3 (configuration not stated)	> 100
O=C1CCCSC(=O)N1Cc1ccccc1	> 100
COC(=O)c1c(C)cccc1C1CN=NC12Cc1ccc(C)cc1C2=O (configuration not stated)	> 100

Structure (SMILES)	TGI [µM]
N#Cc1c(-c2ccccc2)/c(=C\Nc2cccc(C(F)(F)F)c2)c(=O)n2c1nc1ccccc12	> 100
S=C1Nc2ccccc2SC1c1ccccc1 (configuration not stated)	> 100
COC(=O)c1ccccc1CC1Cc2ccc3c(c2C1=O)CCCC3 (configuration not stated)	> 100
CN1CCN(C2=NCCO2)CC1	> 100
c1ccc(N=c2sc3ccccc3nc2Nc2ccccc2)cc1	> 100
O=C1/C(=C/c2ccccc2)N=C2Sc3c(nc[nH]c3=O)N12	> 100
C=CC1(C)CCC2C(=CCC3C2(C)CC(O)C(O)C3(C)COC2OC(C(=O)O)C(O)C(O)C2O)C1 (configuration not stated) (tested in a mixture with another compound)	> 100
N#Cc1c(N2CCCC2)ncn(-c2ccccc2)c1=O	> 100
N#CC1(C#N)N[C@@H](c2ccsc2)[C@H]2C(=O)N(c3ccccc3)C(=O)[C@H]21	> 100
O=[N+]([O-])c1ccc2c(c1)/C(=N/N=C1c3ccccc3Cc3ccccc31)c1cc([N+](=O)[O-])cc([N+](=O)[O-])c1-2	3.85
Cc1ccc([N+](=O)[O-])cc1NC1=NCCO1	> 100
CC(C)=CCc1c2c(c3occ(-c4ccc(O)cc4)c(=O)c3c1O)CC(C(C)(C)O)O2 (configuration not stated)	36
CCOC(=O)C(SCCO)C(C(=O)OCC)n1cnc2c(=O)[nH]c(NC(C)=O)nc21 (configuration not stated)	> 100
COc1cc(C2c3cc4c(cc3OC(N3CCOCC3)C2C)OCO4)ccc1O (configuration not stated)	> 95.7
Cc1ccccc1C(=O)N1CCc2c([nH]c3ccccc23)C1	50.9
CC[C@@H]1CC[C@@H]2[C@H](CC[C@]3(C)[C@@H](OC(C)=O)CC[C@@H]23)[C@H]1COC(C)=O	79.1
NS(=O)(=O)c1ccc2c(c1)OCCOCCOCCOCCO2	> 100
COC(=O)c1cc(=O)nc2sc3cccc(C)c3n12	> 100

Each molecule was assayed on TK-10 renal (assay: DTP human tumour cell line panel, 48 h).

Structure (SMILES)	TGI [µM]
O=C1CSC(c2ccc(Cl)cc2)N1c1ccc(Oc2ccc(Cl)cc2)c(Cl)c1 (configuration not stated)	33.2
Cc1ccc(C(=O)O)cc1S(=O)(=O)Nn1cnc2ccc(S(=O)(=O)Nc3ccccc3C(=O)O)cc2c1=O	> 100
CCCCCCc1cc2cc(-c3csc(CC#N)n3)c(=O)oc2cc1O	> 100
C=C1C(=O)O[C@@H]2C(=O)[C@@H](C)CCC/C(C)=C/CC[C@@]3(C)O[C@@H]3C[C@@H]12	81.6
COc1cc(Br)cc2cc(-c3cn4ccsc4n3)c(=O)oc12	> 100
C[C@]12CCC(O)CC1=CC[C@@H]1[C@@H]2CC[C@]2(C)C(=O)[C@H](n3ccnc3)C[C@@H]12 (some centres not stated)	> 100
O=c1[nH]c(Nc2cccc(CC(F)(F)F)c2)nc2nc[nH]c12	> 100
COc1ccc(-c2cc(O)c3nc4ccccc4n3c2)cc1	> 100
O=C1CC(NC(=O)C(F)(F)F)c2c(Br)sc(N3CCNCC3)c21 (configuration not stated)	> 100
COc1cc2nc3n(c(=O)c2cc1OC)-c1ccc([N+](=O)[O-])cc1C3=O	> 100
CC(=O)OC1CC(OC2C(O)CC(OC3C(O)CC(OC4CCC5(C)C(CCC6C5CC(O)C5(C)C(C7=CC(=O)OC7)CCC65O)C4)OC3C)OC2C)OC(C)C1OC1OC(CO)C(O)C(O)C1O (configuration not stated)	0.235
Nc1nc(SCCc2ccccc2)c2[nH]cnc2n1	67.9
Cc1ccc(-c2n[nH]c(=O)n2N2C(=O)c3ccccc3C2=O)cc1	> 100
COc1cc2c(c(OC)c1OC)C(=O)[C@@H]1[C@H]2N1C(N)=O	> 100
COC(=O)C1SC(SC)=NC12c1ccccc1Nc1ccccc12 (configuration not stated)	> 100
CCOC(=O)C1(C/C=C/CBr)Cc2ccccc2C1=O (configuration not stated)	9.15
CN1CCc2cc(N)cc3c2C1Cc1ccc(O)c(O)c1-3 (configuration not stated)	> 100
O=C1CCCSC(=O)N1Cc1ccccc1	> 100
COC(=O)c1c(C)cccc1C1CN=NC12Cc1ccc(C)cc1C2=O (configuration not stated)	> 100

Structure (SMILES)	TGI [µM]
N#Cc1c(-c2ccccc2)/c(=C\Nc2cccc(C(F)(F)F)c2)c(=O)n2c1nc1ccccc12	> 100
S=C1Nc2ccccc2SC1c1ccccc1 (configuration not stated)	> 100
COC(=O)c1ccccc1CC1Cc2ccc3c(c2C1=O)CCCC3 (configuration not stated)	> 100
CN1CCN(C2=NCCO2)CC1	> 100
c1ccc(N=c2sc3ccccc3nc2Nc2ccccc2)cc1	> 100
O=C1/C(=C/c2ccccc2)N=C2Sc3c(nc[nH]c3=O)N12	> 100
C=CC1(C)CCC2C(=CCC3C2(C)CC(O)C(O)C3(C)COC2OC(C(=O)O)C(O)C(O)C2O)C1 (configuration not stated) (tested in a mixture with another compound)	> 100
N#Cc1c(N2CCCC2)ncn(-c2ccccc2)c1=O	> 100
N#CC1(C#N)N[C@@H](c2ccsc2)[C@H]2C(=O)N(c3ccccc3)C(=O)[C@H]21	> 100
O=[N+]([O-])c1ccc2c(c1)/C(=N/N=C1c3ccccc3Cc3ccccc31)c1cc([N+](=O)[O-])cc([N+](=O)[O-])c1-2	11.5
Cc1ccc([N+](=O)[O-])cc1NC1=NCCO1	> 100
CC(C)=CCc1c2c(c3occ(-c4ccc(O)cc4)c(=O)c3c1O)CC(C(C)(C)O)O2 (configuration not stated)	30.1
CCOC(=O)C(SCCO)C(C(=O)OCC)n1cnc2c(=O)[nH]c(NC(C)=O)nc21 (configuration not stated)	> 100
COc1cc(C2c3cc4c(cc3OC(N3CCOCC3)C2C)OCO4)ccc1O (configuration not stated)	> 100
Cc1ccccc1C(=O)N1CCc2c([nH]c3ccccc23)C1	80.2
CC[C@@H]1CC[C@@H]2[C@H](CC[C@]3(C)[C@@H](OC(C)=O)CC[C@@H]23)[C@H]1COC(C)=O	> 100
NS(=O)(=O)c1ccc2c(c1)OCCOCCOCCOCCO2	> 100
COC(=O)c1cc(=O)nc2sc3cccc(C)c3n12	> 100

The molecules below were run on MALME-3M melanoma (assay: DTP human tumour cell line panel, 48 h).

Structure (SMILES)	TGI [µM]
O=C1CSC(c2ccc(Cl)cc2)N1c1ccc(Oc2ccc(Cl)cc2)c(Cl)c1 (configuration not stated)	21.9
Cc1ccc(C(=O)O)cc1S(=O)(=O)Nn1cnc2ccc(S(=O)(=O)Nc3ccccc3C(=O)O)cc2c1=O	> 100
CCCCCCc1cc2cc(-c3csc(CC#N)n3)c(=O)oc2cc1O	> 100
C=C1C(=O)O[C@@H]2C(=O)[C@@H](C)CCC/C(C)=C/CC[C@@]3(C)O[C@@H]3C[C@@H]12	> 100
COc1cc(Br)cc2cc(-c3cn4ccsc4n3)c(=O)oc12	> 100
C[C@]12CCC(O)CC1=CC[C@@H]1[C@@H]2CC[C@]2(C)C(=O)[C@H](n3ccnc3)C[C@@H]12 (some centres not stated)	> 100
O=c1[nH]c(Nc2cccc(CC(F)(F)F)c2)nc2nc[nH]c12	> 100
COc1ccc(-c2cc(O)c3nc4ccccc4n3c2)cc1	> 100
O=C1CC(NC(=O)C(F)(F)F)c2c(Br)sc(N3CCNCC3)c21 (configuration not stated)	> 100
